# Reference: the OligoGym collection
# HELM strings list units from the 5' end as sugar, base in round brackets, then linkage (d deoxyribose, r ribose, m 2'-O-methyl, p phosphodiester). Strings are as the collection lists them; they lack the last nucleoside at the 3' end of the tested compound. [moe] = 2'-O-(2-methoxyethyl) (MOE); [sp] = phosphorothioate linkage; [m5C] = 5-methylcytosine
# Biological target: SMN2
# Test: mouse, dose not given
# Conditions: ASO
row,Substance,3 h FOB score
1,RNA1{[moe](A)[sp].[moe]([m5C])[sp].[moe](T)[sp].[moe](T)[sp].[moe](T)[sp].[moe]([m5C])p.[moe](A)p.[moe](T)p.[moe](A)p.[moe](A)p.[moe](T)p.[moe](G)p.[moe]([m5C])[sp].[moe](T)[sp].[moe](G)[sp].[moe](G)}$$$$ (last 3' nucleoside missing),0 score 0-7
2,RNA1{[moe](A)[sp].[moe]([m5C])[sp].[moe](T)[sp].[moe](T)[sp].[moe](T)p.[moe]([m5C])p.[moe](A)p.[moe](T)p.[moe](A)[sp].[moe](A)[sp].[moe](T)[sp].[moe](G)[sp].[moe]([m5C])[sp].[moe](T)[sp].[moe](G)[sp].[moe](G)}$$$$ (last 3' nucleoside missing),0 score 0-7
3,RNA1{[moe](A)[sp].[moe]([m5C])[sp].[moe](T)p.[moe](T)[sp].[moe](T)[sp].[moe]([m5C])[sp].[moe](A)[sp].[moe](T)[sp].[moe](A)[sp].[moe](A)[sp].[moe](T)[sp].[moe](G)[sp].[moe]([m5C])[sp].[moe](T)p.[moe](G)[sp].[moe](G)}$$$$ (last 3' nucleoside missing),0 score 0-7
4,RNA1{[moe](A)[sp].[moe]([m5C])[sp].[moe](T)p.[moe](T)[sp].[moe](T)[sp].[moe]([m5C])[sp].[moe](A)[sp].[moe](T)[sp].[moe](A)p.[moe](A)[sp].[moe](T)[sp].[moe](G)[sp].[moe]([m5C])[sp].[moe](T)p.[moe](G)[sp].[moe](G)}$$$$ (last 3' nucleoside missing),0 score 0-7
5,RNA1{[moe](A)[sp].[moe]([m5C])[sp].[moe](T)p.[moe](T)[sp].[moe](T)[sp].[moe]([m5C])[sp].[moe](A)p.[moe](T)[sp].[moe](A)[sp].[moe](A)[sp].[moe](T)p.[moe](G)[sp].[moe]([m5C])[sp].[moe](T)p.[moe](G)[sp].[moe](G)}$$$$ (last 3' nucleoside missing),0 score 0-7
6,RNA1{[moe](A)[sp].[moe]([m5C])[sp].[moe](T)p.[moe](T)[sp].[moe](T)[sp].[moe]([m5C])p.[moe](A)[sp].[moe](T)[sp].[moe](A)p.[moe](A)[sp].[moe](T)[sp].[moe](G)p.[moe]([m5C])[sp].[moe](T)p.[moe](G)[sp].[moe](G)}$$$$ (last 3' nucleoside missing),0 score 0-7
7,RNA1{[moe](A)[sp].[moe]([m5C])[sp].[moe](T)p.[moe](T)[sp].[moe](T)p.[moe]([m5C])[sp].[moe](A)p.[moe](T)[sp].[moe](A)p.[moe](A)[sp].[moe](T)p.[moe](G)[sp].[moe]([m5C])p.[moe](T)[sp].[moe](G)[sp].[moe](G)}$$$$ (last 3' nucleoside missing),0 score 0-7
8,RNA1{[moe](A)[sp].[moe]([m5C])[sp].[moe](T)p.[moe](T)p.[moe](T)p.[moe]([m5C])p.[moe](A)[sp].[moe](T)[sp].[moe](A)[sp].[moe](A)[sp].[moe](T)[sp].[moe](G)[sp].[moe]([m5C])[sp].[moe](T)[sp].[moe](G)[sp].[moe](G)}$$$$ (last 3' nucleoside missing),0 score 0-7
9,RNA1{[moe](A)[sp].[moe]([m5C])p.[moe](T)p.[moe](T)[sp].[moe](T)[sp].[moe]([m5C])[sp].[moe](A)[sp].[moe](T)[sp].[moe](A)[sp].[moe](A)[sp].[moe](T)[sp].[moe](G)[sp].[moe]([m5C])p.[moe](T)p.[moe](G)[sp].[moe](G)}$$$$ (last 3' nucleoside missing),0 score 0-7
10,RNA1{[moe](A)[sp].[moe]([m5C])p.[moe](T)p.[moe](T)p.[moe](T)[sp].[moe]([m5C])[sp].[moe](A)[sp].[moe](T)[sp].[moe](A)[sp].[moe](A)[sp].[moe](T)[sp].[moe](G)[sp].[moe]([m5C])p.[moe](T)p.[moe](G)[sp].[moe](G)}$$$$ (last 3' nucleoside missing),0 score 0-7
11,RNA1{[moe](A)[sp].[moe]([m5C])p.[moe](T)p.[moe](T)p.[moe](T)[sp].[moe]([m5C])[sp].[moe](A)[sp].[moe](T)[sp].[moe](A)[sp].[moe](A)[sp].[moe](T)[sp].[moe](G)p.[moe]([m5C])p.[moe](T)p.[moe](G)[sp].[moe](G)}$$$$ (last 3' nucleoside missing),0 score 0-7
12,RNA1{[moe](A)[sp].[moe]([m5C])p.[moe](T)p.[moe](T)p.[moe](T)p.[moe]([m5C])[sp].[moe](A)[sp].[moe](T)[sp].[moe](A)[sp].[moe](A)[sp].[moe](T)[sp].[moe](G)p.[moe]([m5C])p.[moe](T)p.[moe](G)[sp].[moe](G)}$$$$ (last 3' nucleoside missing),0 score 0-7
13,RNA1{[moe](A)p.[moe](T)[sp].[moe]([m5C])[sp].[moe](A)[sp].[moe]([m5C])[sp].[moe](T)[sp].[moe](T)[sp].[moe](T)[sp].[moe]([m5C])[sp].[moe](A)[sp].[moe](T)[sp].[moe](A)[sp].[moe](A)[sp].[moe](T)[sp].[moe](G)[sp].[moe]([m5C])[sp].[moe](T)[sp].[moe](G)}$$$$ (last 3' nucleoside missing),4 score 0-7
14,RNA1{[moe](G)[sp].[moe](A)[sp].[moe](T)[sp].[moe](T)[sp].[moe]([m5C])[sp].[moe](A)[sp].[moe]([m5C])[sp].[moe](T)[sp].[moe](T)[sp].[moe](T)[sp].[moe]([m5C])[sp].[moe](A)[sp].[moe](T)[sp].[moe](A)[sp].[moe](A)[sp].[moe](T)[sp].[moe](G)[sp].[moe]([m5C])[sp].[moe](T)}$$$$ (last 3' nucleoside missing),4 score 0-7
15,RNA1{[moe](G)[sp].[moe](A)[sp].[moe](T)[sp].[moe](T)[sp].[moe]([m5C])[sp].[moe](A)[sp].[moe]([m5C])[sp].[moe](T)[sp].[moe](T)[sp].[moe](T)[sp].[moe]([m5C])[sp].[moe](A)[sp].[moe](T)[sp].[moe](A)[sp].[moe](A)[sp].[moe](T)[sp].[moe](G)[sp].[moe]([m5C])}$$$$ (last 3' nucleoside missing),2 score 0-7
16,RNA1{[moe](T)[sp].[moe](T)[sp].[moe]([m5C])[sp].[moe](A)[sp].[moe]([m5C])[sp].[moe](T)[sp].[moe](T)[sp].[moe](T)[sp].[moe]([m5C])[sp].[moe](A)[sp].[moe](T)[sp].[moe](A)[sp].[moe](A)[sp].[moe](T)[sp].[moe](G)[sp].[moe]([m5C])[sp].[moe](T)[sp].[moe](G)}$$$$ (last 3' nucleoside missing),3.75 score 0-7
17,RNA1{[moe](T)[sp].[moe](T)[sp].[moe]([m5C])[sp].[moe](A)[sp].[moe]([m5C])[sp].[moe](T)[sp].[moe](T)[sp].[moe](T)[sp].[moe]([m5C])[sp].[moe](A)[sp].[moe](T)[sp].[moe](A)[sp].[moe](A)[sp].[moe](T)[sp].[moe](G)[sp].[moe]([m5C])p.[moe](T)[sp].[moe](G)}$$$$ (last 3' nucleoside missing),1.75 score 0-7
18,RNA1{[moe](T)[sp].[moe](T)[sp].[moe]([m5C])[sp].[moe](A)[sp].[moe]([m5C])[sp].[moe](T)[sp].[moe](T)[sp].[moe](T)[sp].[moe]([m5C])[sp].[moe](A)[sp].[moe](T)[sp].[moe](A)[sp].[moe](A)[sp].[moe](T)p.[moe](G)[sp].[moe]([m5C])p.[moe](T)[sp].[moe](G)}$$$$ (last 3' nucleoside missing),1 score 0-7
19,RNA1{[moe](T)[sp].[moe](T)[sp].[moe]([m5C])[sp].[moe](A)[sp].[moe]([m5C])[sp].[moe](T)[sp].[moe](T)[sp].[moe](T)[sp].[moe]([m5C])p.[moe](A)[sp].[moe](T)[sp].[moe](A)[sp].[moe](A)[sp].[moe](T)[sp].[moe](G)[sp].[moe]([m5C])[sp].[moe](T)[sp].[moe](G)}$$$$ (last 3' nucleoside missing),3.75 score 0-7
20,RNA1{[moe](T)[sp].[moe](T)[sp].[moe]([m5C])[sp].[moe](A)[sp].[moe]([m5C])[sp].[moe](T)[sp].[moe](T)[sp].[moe](T)[sp].[moe]([m5C])p.[moe](A)[sp].[moe](T)[sp].[moe](A)[sp].[moe](A)[sp].[moe](T)[sp].[moe](G)[sp].[moe]([m5C])p.[moe](T)[sp].[moe](G)}$$$$ (last 3' nucleoside missing),2 score 0-7
21,RNA1{[moe](T)[sp].[moe](T)p.[moe]([m5C])[sp].[moe](A)[sp].[moe]([m5C])[sp].[moe](T)[sp].[moe](T)[sp].[moe](T)[sp].[moe]([m5C])[sp].[moe](A)[sp].[moe](T)[sp].[moe](A)[sp].[moe](A)[sp].[moe](T)[sp].[moe](G)[sp].[moe]([m5C])[sp].[moe](T)[sp].[moe](G)}$$$$ (last 3' nucleoside missing),3 score 0-7
22,RNA1{[moe](T)[sp].[moe](T)p.[moe]([m5C])[sp].[moe](A)[sp].[moe]([m5C])[sp].[moe](T)[sp].[moe](T)[sp].[moe](T)[sp].[moe]([m5C])[sp].[moe](A)[sp].[moe](T)[sp].[moe](A)[sp].[moe](A)[sp].[moe](T)[sp].[moe](G)[sp].[moe]([m5C])p.[moe](T)[sp].[moe](G)}$$$$ (last 3' nucleoside missing),1 score 0-7
23,RNA1{[moe](T)[sp].[moe](T)p.[moe]([m5C])[sp].[moe](A)[sp].[moe]([m5C])[sp].[moe](T)[sp].[moe](T)[sp].[moe](T)[sp].[moe]([m5C])p.[moe](A)[sp].[moe](T)[sp].[moe](A)[sp].[moe](A)[sp].[moe](T)[sp].[moe](G)[sp].[moe]([m5C])[sp].[moe](T)[sp].[moe](G)}$$$$ (last 3' nucleoside missing),2.5 score 0-7
24,RNA1{[moe](T)[sp].[moe](T)p.[moe]([m5C])[sp].[moe](A)p.[moe]([m5C])[sp].[moe](T)[sp].[moe](T)[sp].[moe](T)[sp].[moe]([m5C])[sp].[moe](A)[sp].[moe](T)[sp].[moe](A)[sp].[moe](A)[sp].[moe](T)[sp].[moe](G)[sp].[moe]([m5C])[sp].[moe](T)[sp].[moe](G)}$$$$ (last 3' nucleoside missing),2.25 score 0-7
